Source: patent US20100029554A1, “Composition and Methods for Treatment of Congestive Heart Failure” (Amylin Pharmaceuticals, Inc., priority 2006, published 2010)
Where no end group is shown, it is not given here.

Experiments:
[1] = test system: Sprague Dawley rats with MI-induced CHF; experiment: MI-induced CHF animal model; type: in vivo, rat; settings: subcutaneous infusion 11 weeks
Method: Sprague Dawley rats undergo left coronary artery ligation to induce myocardial infarction (MI) and subsequently congestive heart failure. Some rats undergo sham surgery. Starting two weeks after coronary ligation, rats are treated with GLP-1 (2.5 or 25 pmol/kg/min), [Leu^14]-Exendin-4 amide (1.67 or 5 pmol/kg/min) or vehicle for 11 weeks via subcutaneous infusion. Cardiac function and remodeling are assessed by echocardiography. At the end of study, rats undergo treadmill testing, hemodynamic measurements and fasting (12 hour fasting) insulin and glucose concentration were measured and the Homeostasis Model Assessment (HOMA), a major index for insulin resistance, is calculated. Peak Oxygen uptake during exercise is measured by indirect calorimetry.
Transthoracic Doppler echocardiography is performed. Briefly, short-axis images are obtained at the papillary muscle level and 2D guided M-mode tracing are recorded at a speed of 100 mm/s. Left ventricular end-diastolic (LVEDD) and end-systolic dimensions (LVESD) are measured according the American Society for Echocardiography leading-edge method. Left atrial volume (LAV) and ejection fraction (LVEF) are measured and calculated from the long-axis view.
Pulsed-wave Doppler spectra of mitral inflow are obtained from apical 5-chamber view. The sample volume is placed at the tip of the mitral leaflets and adjusted to the position of maximal velocity. The peak of early (E) and late filling waves (A) are measured and E/A ratio are calculated. […] FIG. 2A-C. […]
Designations “L” and “H” indicate low and high dose of drug, respectively. […] The end point for treadmill test is determined by rat's inability to keep the pace of treadmill and land on the electric shock grid for over 6 seconds. The exercise capacity (EC) is calculated as EC (kgm)=Body weight (kg)×degree of grade×running distance. Oxygen consumption (VO2), carbon dioxide production (VCO2) are measured as described. Within 1 minute after the treadmill test, plasma lactate and glucose are measured. The treadmill test is run and analyzed by one investigator who is blinded to the study.

NH/Swiss mice = experiment: Glucose lowering assay; type: in vivo, mouse; settings: IP
Method: Female NH/Swiss mice (˜8-20 weeks of age), (Harlan, Indianapolis, Ind., USA), housed 3 mice per cage, are allowed ad libitum access to food and water until the start of the experiment. At two hours prior to treatment, access to food is restricted.
At the time of treatment, the tip of the tail is pricked with a needle to obtain 1 μl blood as a “pre-treatment” control blood sample. Immediately thereafter, each mouse is injected intraperitoneally (IP) with a test sample (1 nmol/kg or 2 nmol/kg) or 200 μl vehicle (10% DMSO saline). Additional blood samples are collected at 30, 60, 120, 180, and 240 minutes after injection.
Blood glucose is measured with a glucose oxidase biosensor (OneTouch® Ultra® (LifeScan, Inc., a Johnson & Johnson Company, Milpitas, Calif.)). At each time point, the effect of the test sample is expressed as the percent change in blood glucose relative to mice injected with vehicle only. Test samples and vehicle controls are also compared to their respective “pre-treatment” controls.
Significant test sample effects are identified by ANOVA (p<0.05). Where a significant difference existed, test means are compared to the control mean with Dunnett's post test using GraphPad Prism version 4.00 for Windows, GraphPad Software, San Diego Calif. USA, www.graphpad.com).

NIH:Swiss mice = experiment: Food intake assay; type: in vivo, mouse; settings: IP
Method: All mice (NIH:Swiss mice) are housed in a stable environment of 22 (±2)° C., 60 (±10)% humidity and a 12:12 light:dark cycle; with lights on at 0300. Mice are housed in groups of three in standard cages with ad libitum access to food (Teklad: LM 485; Madison, Wis.) and water except as noted, for at least two weeks before the experiments.
All experiments are conducted between the hours of 0700 and 0900. The mice are food deprived (food removed at 1530 hr from all animals on day prior to experiment). […] The food pellet is weighed at 30-minute, 1-hr, and 2-hr intervals to determine the amount of food eaten.
Significant test sample effects are identified by ANOVA (p<0.05). Where a significicant difference exists, test means are compared to the control mean using Dunnett's test. One-way ANOVA with Dunnett's post test is performed using GraphPad Prism version 3.01 for Windows, GraphPad Software, San Diego Calif.

[2] = target: T1, GLP-1 receptors (RINm5f cell membranes) (Rattus norvegicus, UniProt P32301); experiment: Receptor binding assay, RBA GLP (RIN); settings: [125I] human GLP-1 displacement
T1 construct: RINm5f cells expressing endogenous GLP-1 receptors; endogenous in cells; host or cells: RINm5f cell membranes
T1 sequence (P32301 22-463): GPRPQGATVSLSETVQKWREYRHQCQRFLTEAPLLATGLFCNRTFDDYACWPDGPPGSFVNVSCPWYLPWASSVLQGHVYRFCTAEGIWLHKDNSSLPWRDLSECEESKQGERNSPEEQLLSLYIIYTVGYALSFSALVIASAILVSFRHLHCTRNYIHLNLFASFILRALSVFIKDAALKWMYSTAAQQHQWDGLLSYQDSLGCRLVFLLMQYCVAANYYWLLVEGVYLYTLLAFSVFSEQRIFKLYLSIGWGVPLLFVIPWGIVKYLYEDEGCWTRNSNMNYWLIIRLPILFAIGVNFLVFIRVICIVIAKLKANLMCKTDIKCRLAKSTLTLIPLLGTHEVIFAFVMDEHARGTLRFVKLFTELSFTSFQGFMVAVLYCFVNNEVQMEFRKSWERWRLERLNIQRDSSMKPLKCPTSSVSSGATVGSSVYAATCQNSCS
Excerpt: The well contents are harvested onto 96 well glass fiber plates using a Perkin Elmer plate harvestor. Dried glass fiber plates are combined with scintillant and counted on a Perkin Elmer scintillation counter.

[3] = test system: GLP/GIP/CT cyclase, RIN-m5F cells; experiment: GLP/GIP/CT Cyclase (RIN) assay; type: cell-based, rat; settings: cAMP, values without **
Method: GLP/GIP/CT Cyclase (RIN) Assay
(§1) Five μl of serially diluted peptides are transferred to the 384-well assay plate. Rat pancreas insulinoma cells (RIN-m5F) are detached from a tissue culture flask with Versene and washed once in buffer. Then RIN-m5F cells are resusupended in buffer at 2.5×10^6 cells/ml. Then 10 μl cells (2.5×10^4 cells) are added to all wells of the assay plate and cells are stimulated at room temperature in the dark for 30 minutes. The reaction is terminated with 10 μl of lysis buffer and incubated at room temperature for 4 hrs in the dark. cAMP content is measured using Perkin Elmer AlphaScreen™ cAMP assay kit and results are read on a Perkin Elmer Fusion fluorometer. The assay is completed in 384-well plates at 25 microliter volumes.

Plasma stability = type: in vitro ADME; settings: 20 μg/mL in plasma, 37° C., 0-5 hours
Method: To assess stability, the compound of interest is spiked into plasma at a concentration of 20 μg/mL. It is incubated at 37° C. for 0, 1, 2 3, 4, 5 hours in triplicate. At each time point, MeOH is added to a 96 well microtiter plate and then sample is added in a ratio of 1 part sample to 4 parts MeOH to quench the digestion reaction. Samples are mixed with multi-channel pipette or liquid handler. The plate is then centrifuged for 10 minutes and placed in an autosampler kept at 10° C. Samples are then injected into a mass spectrometer (API 3000, Applied Biosystems) equipped with an autosampler (Leap HTC Pal) and HPLC pumps (Shimadzu LC-10ADVP).

[4] = test system: GLP-1 cyclase, rat thyroid carcinoma cells (6-23); experiment: GLP-1 Cyclase (6-23) assay; type: cell-based; settings: cAMP, 6-23 cells; values marked **
Method: as §1, with “thyroid carcinoma” for “pancreas insulinoma”, “(6-23)” for “(RIN-m5F)”, “6-23” for “RIN-m5F”, “3.0×10^6” for “2.5×10^6”, “(3.0×10^4” for “(2.5×10^4”, “μl” for “microliter”

Q: Which results are given for `CC[C@H](C)[C@H](NC(=O)[C@H](Cc1ccccc1)NC(=O)[C@H](CCC(=O)O)NC(=O)[C@H](CCCCN)NC(=O)[C@H](C)NC(=O)[C@H](C)NC(=O)[C@H](CCC(N)=O)NC(=O)CNC(=O)[C@H](CCC(=O)O)NC(=O)[C@H](CC(C)C)NC(=O)[C@H](Cc1ccc(O)cc1)NC(=O)[C@H](CO)NC(=O)[C@H](CO)NC(=O)[C@@H](NC(=O)[C@H](CC(=O)O)NC(=O)[C@H](CO)NC(=O)[C@@H](NC(=O)[C@H](Cc1ccccc1)NC(=O)[C@@H](NC(=O)CNC(=O)[C@H](CCC(=O)O)NC(=O)[C@H](C)NC(=O)[C@@H](N)Cc1c[nH]cn1)[C@@H](C)O)[C@@H](C)O)C(C)C)C(=O)N[C@@H](C)C(=O)N[C@@H](Cc1c[nH]c2ccccc12)C(=O)N[C@@H](CC(C)C)C(=O)N[C@H](C(=O)N[C@@H](CCCCN)C(=O)NCC(=O)N[C@@H](CCCNC(=N)N)C(N)=O)C(C)C` [Cmpd 3521, reference compound]?
A: baseline plasma lactate level [1]: attenuated baseline plasma lactate level; left ventricle chamber size (LVEDD, LVESD) [1]: attenuates enlargement of left ventricle chamber size; insulin resistance / insulin sensitivity (fasting insulin, glucose, HOMA) ([1]; 12 hour fasting): attenuates insulin resistance and improves insulin sensitivity; GLU LOWERING AUC240 @80 nmol/kg (NH/Swiss mice; 80 nmol/kg): −9% @; FOOD INTAKE at 60 min (NIH:Swiss mice; dose 1 mg/kg): −27%

Q: With `CC[C@H](C)[C@H](NC(=O)[C@@H]1CCCN1C(=O)[C@@H](NC(=O)CNC(=O)CNC(=O)CNC(=O)[C@H](CCCNC(=N)N)NC(=O)CNC(=O)[C@H](CCCCN)NC(=O)[C@@H](NC(=O)[C@H](CC(C)C)NC(=O)[C@H](Cc1c[nH]c2ccccc12)NC(=O)[C@H](C)NC(=O)[C@@H](NC(=O)[C@H](Cc1ccccc1)NC(=O)[C@H](CCC(=O)O)NC(=O)[C@H](CCCCN)NC(=O)[C@H](C)NC(=O)[C@H](C)NC(=O)[C@H](CCC(N)=O)NC(=O)CNC(=O)[C@H](CCC(=O)O)NC(=O)[C@H](CC(C)C)NC(=O)[C@H](Cc1ccc(O)cc1)NC(=O)[C@H](CO)NC(=O)[C@H](CO)NC(=O)[C@@H](NC(=O)[C@H](CC(=O)O)NC(=O)[C@H](CO)NC(=O)[C@@H](NC(=O)[C@H](Cc1ccccc1)NC(=O)[C@@H](NC(=O)CNC(=O)[C@H](CCC(=O)O)NC(=O)[C@H](C)NC(=O)[C@@H](N)Cc1c[nH]cn1)[C@@H](C)O)[C@@H](C)O)C(C)C)[C@@H](C)CC)C(C)C)[C@@H](C)CC)C(N)=O` [Cmpd 4957] as the compound, how does the IC50 [2] read?
A: Its IC50 is 100 pM.

Q: And the EC50 [3]?
A: Its EC50 is 510 pM.

Q: For `CC[C@H](C)[C@H](NC(=O)[C@H](Cc1ccccc1)NC(=O)[C@H](CCC(=O)O)NC(=O)[C@H](CCCCN)NC(=O)[C@H](C)NC(=O)[C@H](C)NC(=O)[C@H](CCCCN)NC(=O)[C@H](CCC(=O)O)NC(=O)[C@H](CCC(=O)O)NC(=O)[C@H](CC(C)C)NC(=O)[C@H](CCC(N)=O)NC(=O)[C@H](CCCCN)NC(=O)[C@H](CO)NC(=O)[C@H](CC(C)C)NC(=O)[C@H](CC(=O)O)NC(=O)[C@H](CO)NC(=O)[C@@H](NC(=O)[C@H](Cc1ccccc1)NC(=O)[C@@H](NC(=O)CNC(=O)[C@H](CCC(=O)O)NC(=O)CNC(=O)[C@@H](N)Cc1c[nH]cn1)[C@@H](C)O)[C@@H](C)O)C(=O)N[C@@H](CCC(=O)O)C(=O)N[C@@H](Cc1c[nH]c2ccccc12)C(=O)N[C@@H](CC(C)C)C(=O)N[C@@H](CCCCN)C(=O)N[C@@H](CCC(N)=O)C(=O)NCC(=O)NCC(=O)N1CCC[C@H]1C(=O)N[C@@H](CO)C(=O)N[C@@H](CO)C(=O)NCC(=O)N[C@@H](C)C(=O)N1CCC[C@H]1C(=O)N1CCC[C@H]1C(=O)N1CCC[C@H]1C(=O)N[C@@H](CO)C(N)=O` [Cmpd 5100], which IC50 [2] is on record?
A: The IC50 was 1800 pM.

Q: And the “GLU LOWERING AUC240 @1 nmol/kg” value (NH/Swiss mice; 1 nmol/kg)?
A: The value was −16%.

Q: What about the “FOOD INTAKE at 60 min” value (NIH:Swiss mice; dose 10 nmol/kg) of the same compound?
A: Its value is −66%.

Q: And the “plasma stability as compared to native GLP-1” value (Plasma stability)?
A: The value was “increased plasma stability”.

Q: With “HGEGTFTSDLVKILEAEAVRKFIEFLKNGGPSSGAPPPS-NH2 [Cmpd 5529]” as the compound, how does the EC50 [4] read?
A: Its EC50 is 388 pM.

Q: For “HGEGTFTSDVTEYLEEEAVRLFIEWLKQGGPSSGAPPPS-NH2 [Cmpd 5129]”, which IC50 [2] is on record?
A: The IC50 was 3000 pM.

Q: What about the EC50 [3] of the same compound?
A: The EC50 was 1090 pM.

Q: And the “plasma stability as compared to native GLP-1” value (Plasma stability)?
A: The value was “increased plasma stability”.

Q: And the “plasma stability as compared to native GLP-1” value (Plasma stability; second, narrower list of b152)?
A: Its value is “increased plasma stability”.
